Assay results reported in publication PMC12027730, “Lapatinib-Resistant HER2+ Breast Cancer Cells Are Associated with Dysregulation of MAPK and p70S6K/PDCD4 Pathways and Calcium Management, Influence of Cryptotanshinone” (International Journal of Molecular Sciences, 2025).

Molecular target: T1, eIF4AI (Homo sapiens, UniProt P60842)
T1 construct: gene EIF4A1
Assay: synchronous fluorescence quenching, eIF4A […] with Cry […]
Assay type: binding

T1 sequence (P60842 2-406): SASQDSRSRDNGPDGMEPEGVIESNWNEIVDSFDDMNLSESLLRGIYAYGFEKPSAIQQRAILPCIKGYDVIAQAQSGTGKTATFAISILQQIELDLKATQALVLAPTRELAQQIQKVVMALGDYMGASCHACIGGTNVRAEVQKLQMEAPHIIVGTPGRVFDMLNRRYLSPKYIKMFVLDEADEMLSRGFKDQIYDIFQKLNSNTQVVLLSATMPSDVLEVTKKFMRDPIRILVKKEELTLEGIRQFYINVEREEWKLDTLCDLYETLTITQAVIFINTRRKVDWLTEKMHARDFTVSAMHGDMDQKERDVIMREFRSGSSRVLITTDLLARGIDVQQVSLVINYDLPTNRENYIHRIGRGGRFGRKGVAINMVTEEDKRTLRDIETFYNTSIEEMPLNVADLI

## C[C@H]1COC2=C1C(=O)C(=O)c1c2ccc2c1CCCC2(C)C [Cry, Cryptotanshinone]
  synchronous fluorescence quenching, eIF4A 12 μM with Cry 0-50 μM: A Cry dose-dependent fluorescence emission decrease in eIF4A associated with the induction of the quenching phenomena was observed
